Reference: PMC10288853 (Frontiers in Oncology, 2023)
“And” between values parts separate entries of the source, which are not always exact repeats. Equal entries are not always repeated. Each block holds one molecule with its values, some of them ahead of it.

How the values were obtained:
[1] = Plasma pharmacokinetics by LC-MS/MS; conditions: for AUC(0-t) / Cmax / Tmax: human, plasma, oral; for Cmax: Median Cmax [Min; for Tmax: Median Tmax [Min
[2] = tested on: patients with metastatic uveal melanoma; test: Safety and tolerability: adverse events in phase Ib patients; conditions: given in the combination, all patients
[3] = human, in vivo
clinical = conditions: human, in vivo, median AUC0-8hr of sotrastaurin
[4] = tested on: metastatic uveal melanoma; set-up: method as in PMID 34551229, PMID 35254876; conditions: previously untreated HLA-A*0201 positive patients, versus best alternative care; ref [6], [7]; cited from earlier work
[5] = b.i.d. dosing in combination with sotrastaurin
[6] = Max], plasma binimetinib, 2nd section, Cycle 1 Day 1 (C1D1), Dose Level 1: AEB071 150 mg bid and MEK162 45 mg bid
[7] = Max], plasma binimetinib, 2nd section, Cycle 1 Day 1 (C1D1), Dose Level 3: AEB071 300 mg bid and MEK162 30 mg bid
[8] = Max], plasma binimetinib, 2nd section, Cycle 1 Day 1 (C1D1), Dose Level 4: AEB071 300 mg bid and MEK162 45 mg bid
[9] = Max], plasma binimetinib, 2nd section, Cycle 1 Day 1 (C1D1), Dose Level 5: AEB071 350 mg bid and MEK162 30 mg bid
[10] = Max], plasma binimetinib, 2nd section, Cycle 1 Day 1 (C1D1), Dose Level 6: AEB071 400 mg bid and MEK162 30 mg bid
[11] = Max], plasma binimetinib, Cycle 1 Day 1 (C1D1), Dose Level 1: AEB071 150 mg bid and MEK162 45 mg bid
[12] = Max], plasma binimetinib, Cycle 1 Day 1 (C1D1), Dose Level 2: AEB071 200 mg bid and MEK162 45 mg bid
[13] = Max], plasma binimetinib, Cycle 1 Day 1 (C1D1), Dose Level 3: AEB071 300 mg bid and MEK162 30 mg bid
[14] = Max], plasma binimetinib, Cycle 1 Day 1 (C1D1), Dose Level 4: AEB071 300 mg bid and MEK162 45 mg bid
[15] = Max], plasma binimetinib, Cycle 1 Day 1 (C1D1), Dose Level 5: AEB071 350 mg bid and MEK162 30 mg bid
[16] = Max], plasma binimetinib, Cycle 1 Day 1 (C1D1), Dose Level 6: AEB071 400 mg bid and MEK162 30 mg bid

- median RACC of binimetinib, other three dose levels lower than or close to 1 [1, 5]: 0.76 and 0.78 and 1.08
- median RACC of binimetinib, three dose levels much higher than 1 [1, 5]: 1.34 and 1.42 and 1.54
- AUC(0-t) ([1]; 30 mg, median AUC0-8hr range of binimetinib, cycle 1 day 15, binimetinib 30 mg b.i.d. with varying doses of sotrastaurin): 1210 to 1450 ng·h/mL
- AUC(0-t) ([1]; 45 mg, median AUC0-8hr range of binimetinib, cycle 1 day 15, binimetinib 45 mg b.i.d. with varying doses of sotrastaurin): 1480 to 2140 ng·h/mL
- AUC(0-t) ([1]; Median AUC0–8hr [Min, Max], plasma binimetinib, 2nd section, Cycle 1 Day 1 (C1D1), Dose Level 1: AEB071 150 mg bid and MEK162 45 mg bid): 2000 ng·h/mL
- AUC(0-t) ([1]; Median AUC0–8hr [Min, Max], plasma binimetinib, 2nd section, Cycle 1 Day 1 (C1D1), Dose Level 3: AEB071 300 mg bid and MEK162 30 mg bid): 1210 ng·h/mL
- AUC(0-t) ([1]; Median AUC0–8hr [Min, Max], plasma binimetinib, 2nd section, Cycle 1 Day 1 (C1D1), Dose Level 4: AEB071 300 mg bid and MEK162 45 mg bid): 1480 ng·h/mL
- AUC(0-t) ([1]; Median AUC0–8hr [Min, Max], plasma binimetinib, 2nd section, Cycle 1 Day 1 (C1D1), Dose Level 5: AEB071 350 mg bid and MEK162 30 mg bid): 1250 ng·h/mL
- AUC(0-t) ([1]; Median AUC0–8hr [Min, Max], plasma binimetinib, 2nd section, Cycle 1 Day 1 (C1D1), Dose Level 6: AEB071 400 mg bid and MEK162 30 mg bid): 1450 ng·h/mL
- AUC(0-t) ([1]; Median AUC0–8hr [Min, Max], plasma binimetinib, Cycle 1 Day 1 (C1D1), Dose Level 1: AEB071 150 mg bid and MEK162 45 mg bid): 1540 ng·h/mL
- AUC(0-t) ([1]; Median AUC0–8hr [Min, Max], plasma binimetinib, Cycle 1 Day 1 (C1D1), Dose Level 2: AEB071 200 mg bid and MEK162 45 mg bid): 1550 ng·h/mL
- AUC(0-t) ([1]; Median AUC0–8hr [Min, Max], plasma binimetinib, Cycle 1 Day 1 (C1D1), Dose Level 3: AEB071 300 mg bid and MEK162 30 mg bid): 1130 ng·h/mL
- AUC(0-t) ([1]; Median AUC0–8hr [Min, Max], plasma binimetinib, Cycle 1 Day 1 (C1D1), Dose Level 4: AEB071 300 mg bid and MEK162 45 mg bid): 1610 ng·h/mL
- AUC(0-t) ([1]; Median AUC0–8hr [Min, Max], plasma binimetinib, Cycle 1 Day 1 (C1D1), Dose Level 5: AEB071 350 mg bid and MEK162 30 mg bid): 1260 ng·h/mL
- AUC(0-t) ([1]; Median AUC0–8hr [Min, Max], plasma binimetinib, Cycle 1 Day 1 (C1D1), Dose Level 6: AEB071 400 mg bid and MEK162 30 mg bid): 985 ng·h/mL
- Cmax [1, 6]: 493 ng/mL
- Cmax ([1]; Max], plasma binimetinib, 2nd section, Cycle 1 Day 1 (C1D1), Dose Level 2: AEB071 200 mg bid and MEK162 45 mg bid): 410 ng/mL
- Cmax [1, 7]: 246 ng/mL
- Cmax [1, 8]: 391 ng/mL
- Cmax [1, 9]: 280 ng/mL
- Cmax [1, 10]: 346 ng/mL
- Cmax [1, 11]: 366 ng/mL
- Cmax [1, 12]: 450 ng/mL
- Cmax [1, 13]: 213 ng/mL
- Cmax [1, 14]: 370 ng/mL
- Cmax [1, 15]: 259 ng/mL
- Cmax [1, 16]: 279 ng/mL
- Tmax [1, 6]: 2 h
- Tmax [1, 7]: 3 h
- Tmax [1, 8]: 2.9 h
- Tmax [1, 9]: 1.9 h
- Tmax [1, 10]: 1.5 h
- Tmax [1, 11]: 1.1 h
- Tmax [1, 12]: 1.1 h
- Tmax [1, 13]: 2 h
- Tmax [1, 14]: 4 h
- Tmax [1, 15]: 2 h
- Tmax [1, 16]: 1.1 h
- Median AUC0–8hr [Min; Max] ([1]; plasma binimetinib, 2nd section, Cycle 1 Day 1 (C1D1), Dose Level 2: AEB071 200 mg bid and MEK162 45 mg bid): 2137.7 [1121.6; 2772.3] hr*ng/ml
Molecule: Cn1cnc2c(F)c(Nc3ccc(Br)cc3F)c(C(=O)NOCCO)cc21 [binimetinib]
- Dose reductions applied [2]: 65.8%

Molecule: CN1CCN(c2nc(C3=C(c4c[nH]c5ccccc45)C(=O)NC3=O)c3ccccc3n2)CC1 [sotrastaurin]
- median RACC, range at different doses of sotrastaurin [3]: 0.72-1.15
- AUC(0-t) (clinical; 150 mg): 6070 ng·h/mL
- AUC(0-t) (clinical; 400 mg): 21600 ng·h/mL
- accumulation of sotrastaurin following b.i.d. dosing ([1]; exposure on day 15 compared with day 1): no observed accumulation
- Dose reductions applied [2]: 76.3%

Molecule: tebentafusp: agent improving overall survival in previously untreated HLA-A*0201 positive metastatic uveal melanoma patients
- hazard ratio for death [4]: 0.51
- reduction in the risk of death [4]: 49%
